# From patent US20240382607A1 (priority 2021, published 2024)
# Legend:
# [1] = tested on: A549 (human non-small cell lung cancer cells); experiment: In vitro cytotoxic activity screening, CTG assay, A549; assay type: cell-based
# Description: (§1) In this experiment, the ATP content was determined using CTG to reflect the survival condition of the tumor cells. […] The killing effect of the toxin molecule was then assayed according to this condition.
# (§2) According to the purpose of the experiment, two disease models of breast cancer and NSCLC were selected, and three cell strains of SKBR3 tumor cells (HER2+, ATCC, Cat #HTB-30), MDA-MB-468 (HER2-, ATCC, Cat #HTB-132) and A549 (human non-small cell lung cancer cells, ATCC, Cat #CCL-185) were selected for screening.
# (§3) The cells were counted, and 4.3×10^5, 7.2×10^5 and 11.5×10^5 cells were each added to a culture solution to give a final volume of 26 mL. 180 μL of cell suspension was added to each well in columns 2 to 11 of a 96-well plate (Corning, Cat #3903) to give cell densities of 3K, 5K and 8K per well. Wells in column 12 were each filled with 200 μL of culture solution and the remaining wells were each filled with PBS. The SKBR3 and MDA-MB-468 cells were subjected to the same operations described above. […] 2 mM stock solution (stock solution diluted 10-fold in DMSO) was prepared in column 1 of drug preparation plate 1, and then 10-fold gradient dilution in DMSO was performed through column 10, and the wells in column 11 were filled with DMSO. […] The absorption value was read using a microplate reader and IC50 was calculated.
# [2] = tested on: SKBR3 tumor cells (HER2+); experiment: In vitro cytotoxic activity screening, CTG assay, SKBR3; assay type: cell-based
# Description: as §1, §2, §3
# MDA-MB-468 (HER2-) = experiment: In vitro cytotoxic activity screening, CTG assay, MDA-MB-468; assay type: cell-based
# Description: as §1, §2, §3
# [3] = Pharmacokinetic experiment for beagles, intravenous administration; settings: 0.5 mg/kg
# Description: (§4) Plasma samples were stored in a refrigerator at −80° C. prior to testing.
# as §4
compound,measurement,setting,value
C=C1C[C@@H]2CC[C@@]34C[C@H]5O[C@H]6[C@@H](O3)[C@H]3O[C@H](CC[C@@H]3O[C@H]6[C@H]5O4)CC(=O)C[C@@H]3[C@@H](OC)[C@@H](C[C@@H](CN)OC)O[C@H]3C[C@H]3O[C@@H](CC[C@@H]1O2)C[C@@H](C)C3=C [Compound 1],Maximum inhibition rate (%) A549,"[1]; A549, CTG",81.34%
same,IC50,"[1]; Homo sapiens, A549, read-out: IC50 (nM) A549",0.515 nM
same,IC50,"[2]; Homo sapiens, SK-BR-3, read-out: IC50 (nM) SKBR3",0.205 nM
same,Maximum inhibition rate (%) SKBR3,"[2]; SKBR3, CTG",96.87%
same,IC50,"MDA-MB-468 (HER2-); Homo sapiens, MDA-MB-468, read-out: IC50 (nM) MDA-MB-468",0.183 nM
same,Maximum inhibition rate (%) MDA-MB-468,"MDA-MB-468 (HER2-); MDA-MB-468, CTG",88.01%
same,Plasma concentration C5 min,[3],82.1 ng/mL
